For assay [1], the system named is Caki-1 renal cell carcinoma cells. Nature of the assay: Viability of Caki-1 renal cell carcinoma cells after treatment. Particulars: various doses, 24 hours treatment. The format is cell-based.
Experimental: Caki-1 renal carcinoma cells were treated with either control (DMSO) or various doses (e.g. 0.002, 0.005, 0.014, 0.041, 0.123, 0.370, 1.111, 3.333 and 10 μM) of a GPX4 inhibitor (RSL3 or ML162) in the presence or absence of 1 μM Ferrostatin for 24 hours prior to co-culture with THP1-Dual cells for an additional 24 hours. […] Caki-1 cells were acquired from ATCC and THP1-Dual cells acquired from InvivoGen (San Diego, Calif.). Both cell types were cultured in 96-well plates for the duration of the assay.
The subject of assay [2] is Jurkat T cell leukemia cells. Nature of the assay: Viability of Jurkat T cell leukemia cells after treatment. The format is cell-based. The settings on record: various doses, 24 hours treatment.
Another assay relates to A20 lymphoma cells. The assay can be described thus: Viability of A20 B-cell leukemia / lymphoma cells after treatment. The class given is cell-based. Particulars: various doses, 24 hours treatment.
A further assay concerns IRF. Nature of the assay: IRF reporter activity in THP1-Dual monocytes co-cultured with treated A20 cells. The format is cell-based, human. Particulars: A20 cells treated 24 hours, then co-culture with THP1-Dual cells 24 hours; versus DMSO. As for the experimental part:
A20 B-cell leukemia cells were treated with either control (DMSO) or various doses of RSL3, for 24 hours prior to co-culture with THP1-Dual cells for an additional 24 hours. RSL3 was purchased from Selleckchem (Houston, Tex.) and dissolved in DMSO. Subsequently, the THP1 supernatants were assessed for NFKB or IRF reporter activity. A20 cells were acquired from ATCC and THP1-Dual cells acquired from InvivoGen (San Diego, Calif.). Both cell types were cultured in 96-well plates for the duration of the assay. 50,000 A20 cells were plated 24 hours prior to dosing with RSL3, with a final DMSO concentration of 0.5%. 24 hours post-treatment, THP1-Dual cells (25,000 cells/well) were added to the A20 cells. 24 hours later, 30 μl of supernatant was mixed with either 200 μl QuantiBlue (InvivoGen, San Diego, Calif.) or 50 μl QuantiLuc and absorbance or luminescence was recorded on a Molecular Devices plate reader.

The test system of assay [3] is NFKB. Nature of the assay: NFKB reporter activity in THP1-Dual monocytes co-cultured with treated A20 cells. The class given is cell-based, human. The settings on record: A20 cells treated 24 hours, then co-culture with THP1-Dual cells 24 hours; versus DMSO. The procedure: A20 B-cell leukemia cells were treated with either control (DMSO) or various doses of RSL3, for 24 hours prior to co-culture with THP1-Dual cells for an additional 24 hours. RSL3 was purchased from Selleckchem (Houston, Tex.) and dissolved in DMSO. Subsequently, the THP1 supernatants were assessed for NFKB or IRF reporter activity.
A20 cells were acquired from ATCC and THP1-Dual cells acquired from InvivoGen (San Diego, Calif.). Both cell types were cultured in 96-well plates for the duration of the assay. 50,000 A20 cells were plated 24 hours prior to dosing with RSL3, with a final DMSO concentration of 0.5%. 24 hours post-treatment, THP1-Dual cells (25,000 cells/well) were added to the A20 cells. 24 hours later, 30 μl of supernatant was mixed with either 200 μl QuantiBlue (InvivoGen, San Diego, Calif.) or 50 μl QuantiLuc and absorbance or luminescence was recorded on a Molecular Devices plate reader.
A20 lymphoma cells were treated with various doses (e.g. 0.002, 0.005, 0.014, 0.041, 0.123, 0.370, 1.111, 3.333 and 10 μM) of a GPX4 inhibitor (RSL3, ML162 or ML210) in the presence or absence of 1 μM Ferrostatin-1 for 24 hours. ML162 was purchased from Cayman Chemical Company Inc and resuspended in DMSO. ML210 was purchased from Sigma-Aldrich and resuspended in DMSO. A20 lymphoma cells were also treated with DMSO as a negative control. After treatment with DMSO or a GPX4 inhibitor for 24 hours, the A20 lymphoma cells were co-cultured with THP1-Dual cells for an additional 24 hours. Subsequently, the THP1 supernatant was assessed for NFKB reporter activity. A20 cells were acquired from ATCC and THP1-Dual cells were acquired from InvivoGen (San Diego, Calif.). Both cell types were cultured in 96-well plates for the duration of the assay.

Assay [4] has as its system NFKB. The assay can be described thus: NFKB reporter activity in THP1-Dual monocytes co-cultured with treated Caki-1 cells. The format is cell-based, human. Particulars: Caki-1 cells treated 24 hours, then co-culture with THP1-Dual cells 24 hours; versus DMSO. The procedure:
Caki-1 renal cell carcinoma cells were treated with either control (DMSO) or various doses of Erastin, for 24 hours prior to co-culture with THP1-Dual cells for an additional 24 hours. Erastin was purchased from Selleckchem (Houston, Tex.) and dissolved in DMSO. Subsequently, the THP1 supernatants were assessed for NFKB or IRF reporter activity.
Caki-1 cells were acquired from ATCC and THP1-Dual cells acquired from InvivoGen (San Diego, Calif.). Both cell types were cultured in 96-well plates for the duration of the assay. 7,500 Caki-1 cells were plated 24 hours prior to dosing with Erastin, with a final DMSO concentration of 0.5%. 24 hours post-treatment, THP1-Dual cells (25,000 cells/well) were added to the Caki-1 cells. 24 hours later, 30 μl of supernatant was mixed with either 200 μl QuantiBlue (InvivoGen) or 50 μl QuantiLuc and absorbance or luminescence was recorded on a Molecular Devices plate reader.
Caki-1 renal cell carcinoma cells were treated with either control (DMSO) or various doses of RSL3, for 24 hours prior to co-culture with THP1-Dual cells for an additional 24 hours. RSL3 was purchased from Selleckchem and dissolved in DMSO. Subsequently, the THP1 supernatants were assessed for NFKB or IRF reporter activity.
Caki-1 cells were acquired from ATCC and THP1-Dual cells acquired from InvivoGen (San Diego, Calif.). Both cell types were cultured in 96-well plates for the duration of the assay. 7,500 Caki-1 cells were plated 24 hours prior to dosing with RSL3, with a final DMSO concentration of 0.5%. 24 hours post-treatment, THP1-Dual cells (25,000 cells/well) were added to the Caki-1 cells. 24 hours later, 30 μl of supernatant was mixed with either 200 μl QuantiBlue (InvivoGen, San Diego, Calif.) or 50 μl QuantiLuc and absorbance or luminescence was recorded on a Molecular Devices plate reader.
Caki-1 renal carcinoma cells were treated with either control (DMSO) or various doses (e.g. 0.002, 0.005, 0.014, 0.041, 0.123, 0.370, 1.111, 3.333 and 10 μM) of a GPX4 inhibitor (RSL3 or ML162) in the presence or absence of 1 μM Ferrostatin for 24 hours prior to co-culture with THP1-Dual cells for an additional 24 hours. Subsequently, the THP1 supernatant was assessed for NFKB reporter activity. Caki-1 cells were acquired from ATCC and THP1-Dual cells acquired from InvivoGen (San Diego, Calif.). Both cell types were cultured in 96-well plates for the duration of the assay.

For assay [5], the system named is NFKB. The assay can be described thus: NFKB reporter activity in THP1-Dual monocytes co-cultured with treated Jurkat cells. The settings on record: Jurkat cells treated 24 hours, then co-culture with THP1-Dual cells 24 hours; versus DMSO. The format is cell-based, human. The procedure:
Jurkat T cell leukemia cells were treated with either control (DMSO) or various doses of RSL3, for 24 hours prior to co-culture with THP1-Dual cells for an additional 24 hours. RSL3 was purchased from Selleckchem (Houston, Tex.) and dissolved in DMSO. Subsequently, the THP1 supernatants were assessed for NFKB or IRF reporter activity.
Jurkat cells were acquired from ATCC and THP1-Dual cells acquired from InvivoGen (San Diego, Calif.). Both cell types were cultured in 96-well plates for the duration of the assay. 100,000 Jurkat cells were plated 24 hours prior to dosing with RSL3, with a final DMSO concentration of 0.5%. 24 hours post-treatment, THP1-Dual cells (25,000 cells/well) were added to the Jurkat cells. 24 hours later, 30 μl of supernatant was mixed with either 200 μl QuantiBlue (InvivoGen, San Diego, Calif.) or 50 μl QuantiLuc and absorbance or luminescence was recorded on a Molecular Devices plate reader.

Another assay has as its system RAS-expressing cells. Particulars: knockdown studies; U.S. Pat. No. 8,546,421; cited from earlier work.

Entries after “also recorded” stand apart in the source; their conditions may differ.

As for `COC(=O)c1ccc([C@H]2c3[nH]c4ccccc4c3C[C@H](C(=O)OC)N2C(=O)CCl)cc1` [RSL3], the “viability of Caki-1 cells” value in assay [1] was “negatively affected the viability; also recorded: decreased viability of the cells in a dose dependent manner”. Moreover, the “viability of Jurkat T cell leukemia cells” value in assay [2] is recorded as “negatively affected the viability”. For the same compound, the “viability of A20 cells” value in the assay with A20 lymphoma cells is reported as “negatively affected the viability; also recorded: decreased viability of the cells in a dose dependent manner”. For the same compound, the “IRF signaling in THP1 monocytes” value in the assay with IRF was “elicited”. In addition, the “NFKB signaling/activity in THP1 monocytes” value with NFKB [3] is “elicited; also recorded: increased NFKB activity in THP1 cells in a dose dependent manner”. In the assay with NFKB [4], the “NFKB signaling/activity in THP1 monocytes” value is given as “elicited NFKB signaling; also recorded: increased NFKB activity in THP1 cells in a dose dependent manner”. Moreover, the “NFKB signaling in THP1 monocytes” value in the assay with NFKB [5] is listed as “elicited NFKB signaling”. Also, in the assay with RAS-expressing cells, the “death of RAS-expressing cells” value is given as “selectively mediated the death of RAS-expressing cells” and the “lipid ROS accumulation” value is on record as “increasing lipid ROS accumulation”.

(Values after US20210251994A1, “INCREASING IMMUNE ACTIVITY THROUGH MODULATION OF POSTCELLULAR SIGNALING FACTORS” (FLAGSHIP PIONEERING INNOVATIONS V, INC., priority 2018, published 2021).)
